In patent US20250368687A1, “SHORT SYNTHETIC PEPTIDES AND USES THEREOF IN THE TREATMENT OF ENTEROVIRUS INFECTION” (CITY UNIVERSITY OF HONG KONG, priority 2024, published 2025):

Key:
Type in all cases: cell-based
EV-A71 = assay: Virus titration (TCID50); conditions: 25 μM for 2 hours, EV-A71 MOI 0.1 for 24 hours, RD cells (FIG. 11G)
Description: FIGS. 10A-10K. Peptide S78 inhibited EV-A71 replication and propagation. (FIG. 10A) RD cells were pre-treated with peptides S78 or for 2 hours and infected with EV-A71 at the MOI of 10 for 6 hours. Cell lysates were collected for western blot assay. Hsp27 phosphorylation on Ser 15, 78, 82 were detected by specific antibodies. β-Actin were detected as internal control. (FIG. 10B) Densitometric analysis of FIG. 9A. (FIG. 10C) HEK 293T cells were pre-treated with peptides S78 or S78A at the concentration of 25 μM for 2 hours and then co-transfected with Hsp27-WT plasmid (800 ng), pIRES reporter plasmid (200 ng) and 2A^pro-expressing plasmid or 2AC110A-expressing plasmid (200 ng) for 24 h, then the luciferase activity was measured. (FIG. 10D-10E) RD cells were treated with peptides S78 or S78A and then infected with EV-A71. EV-A71 VP1 were detected. (FIG. 10F) RD cells were treated with peptides and then infected with EV-A71 at the MOI of 1 for 12 hours. The EV-A71-induced CPE was captured. (FIG. 10G-10H) Intracellular viral RNA was extracted and quantified by qPCR. (FIG. 10I) Densitometric analysis FIG. 9D-E. (FIG. 10J) RD cells were treated with peptides S78 or and then infected with EV-A71 at the MOI of 1 for 12 hours. Extracellular viral RNA was extracted and quantified by qPCR. (FIG. 10K) Viral titration was calculated by TCID50. […] Data are expressed as mean ±SD.
FIGS. 11A-11G Inhibition of EV-A71 Protein Translation and Viral Reproduction by peptide S82A. (FIG. 11A) HEK 293T cells were pre-treated with peptides NC, S78, S78A, S82A, or S78-3A at the concentration of 25 μM for 2 hours and then co-transfected with Hsp27-WT plasmid (800 ng), pIRES reporter plasmid (200 ng) and 2A^pro-expressing plasmid for 24 h, then the luciferase activity was measured. […] Intracellular viral RNA was extracted and quantified by qPCR. […] EV-A71 VP1 were detected. β-Actin was detected as an internal control. (FIG. 11F) Densitometric analysis of the EV-A71 VP1 level in FIG. S7C-E was quantified and normalized with β-Actin using ImageJ. […] Viral titration was calculated. […] Data are expressed as mean ±SD. […]

RD cells = assay: CCK-8 assay; conditions: data not shown
Description: (§1) RD cells were seeded in 96-well cell plates (1×10^4/well) and placed in the 5% CO2 incubator for 1 day. Then the cells were treated with peptides for 2 days. 90 μl medium and 10 μl of CCK-8 (BioSharp, BS350B) was added to each well of the 96-well plate, which were incubated at 37° C. for 1 h. A microplate reader (BioTek, Synergy H1) was used to measure the OD value of each well at 450 nm.

[1] = system: Hsp27 and hnRNP A1 redistribution in RD cells; assay: Immunofluorescence colocalization assay of Hsp27/hnRNP A1 redistribution, RD cells with or without EV-A71 infection; conditions: 25 μM for 2h; for redistribution of Hsp27 and hnRNP A1 in EV-A71-infected RD cells: EV-A71 MOI 40 for 6h
Description: (§2) The cells on coverslips were infected with EV-A71 at the multiplicity of infection (MOI) of 40 for 6 hrs to assure the high efficiency of viral infection. Then the cells were fixed by 4% paraformaldehyde for 20 min, permeabilized by 0.5% Triton X-100 for 15 min, blocked with 5% BSA for 2 hrs, and stained by incubation with anti-Hsp27 (GTX101145) and anti-hnRNP A1 (sc-32301) antibody, then with Alexa Fluor 488 conjugated anti-rabbit antibody and Alexa Fluor 594 conjugated anti-mouse antibody respectively. After washing four times with 0.2% Triton X-100, the nuclei were stained with DAPI or Hoechst for 5 min. The images were captured by a Nikon A1HD25 High speed and Large Field of View Confocal Microscope. Colocalization analysis was conducted using the JACoP-plugin of the extended ImageJ version Fiji. The M1 colocalization coefficient was computed to illustrate the colocalization levels of Hsp27 and hnRNP A1 overlapped with Hoechst.
Hsp27 is predominantly located in the cytoplasm, however, stress (e.g., heat shock, virus infection) can induce partial redistribution of Hsp27 from the cytoplasm to the nucleus, concomitantly with its phosphorylation. We thus postulated that the cellular redistribution of Hsp27 may be associated with its phosphorylation upon EV-A71 infection. To verify the hypothesis, RD cells were with SB203580 at 0, 2, 4, and 8 μM for 2 h, and the cells were infected with EV-A71 for 6 h. […] The colocalization of Hsp27 and DAPI, which stands for the level of redistribution of Hsp27, was also quantified. The colocalization coefficient M1 was computed as the fraction of Hsp27 colocalized with DAPI in the total Hsp27 area using the JACoP-plugin in FIJI.
We hypothesized that peptides S78 and S82A could interfere with Ser78 phosphorylation while peptides S78A (Ser78 replaced by Ala78) would not affect the phosphorylation of Ser78 of Hsp27. […] RD cells were pre-treated with peptide S78, S78A or S82A at the concentrations of 25 μM for 2h and then infected with or without EV-A71 at an MOI of 40 for 6h.

EV-A71 VP1 = assay: Western blot of EV-A71 VP1 level in RD cells; conditions: for reduction of VP1 level (densitometric assay): 50 μM; for EV-A71 VP1 protein level (in words): indicated concentrations
Description: (§3) FIGS. 10A-10K. Peptide S78 inhibited EV-A71 replication and propagation. (FIG. 10A) RD cells were pre-treated with peptides S78 or for 2 hours and infected with EV-A71 at the MOI of 10 for 6 hours. Cell lysates were collected for western blot assay. Hsp27 phosphorylation on Ser 15, 78, 82 were detected by specific antibodies. β-Actin were detected as internal control. (FIG. 10B) Densitometric analysis of FIG. 9A. (FIG. 10C) HEK 293T cells were pre-treated with peptides S78 or S78A at the concentration of 25 μM for 2 hours and then co-transfected with Hsp27-WT plasmid (800 ng), pIRES reporter plasmid (200 ng) and 2A^pro-expressing plasmid or 2AC110A-expressing plasmid (200 ng) for 24 h, then the luciferase activity was measured. (FIG. 10D-10E) RD cells were treated with peptides S78 or S78A and then infected with EV-A71. EV-A71 VP1 were detected. (FIG. 10F) RD cells were treated with peptides and then infected with EV-A71 at the MOI of 1 for 12 hours. The EV-A71-induced CPE was captured. (FIG. 10G-10H) Intracellular viral RNA was extracted and quantified by qPCR. (FIG. 10I) Densitometric analysis FIG. 9D-E. (FIG. 10J) RD cells were treated with peptides S78 or and then infected with EV-A71 at the MOI of 1 for 12 hours. Extracellular viral RNA was extracted and quantified by qPCR. (FIG. 10K) Viral titration was calculated by TCID50. The Statistical analyses were carried out using Student's t-test. *: p<0.05, **: p<0.01, ***: p<0.001. Data are expressed as mean ±SD.
FIGS. 11A-11G Inhibition of EV-A71 Protein Translation and Viral Reproduction by peptide S82A. (FIG. 11A) HEK 293T cells were pre-treated with peptides NC, S78, S78A, S82A, or S78-3A at the concentration of 25 μM for 2 hours and then co-transfected with Hsp27-WT plasmid (800 ng), pIRES reporter plasmid (200 ng) and 2A^pro-expressing plasmid for 24 h, then the luciferase activity was measured. (FIG. 11B) RD cells were pre-treated with peptides NC at indicated concentrations for 2 hours and infected with EV-A71 at the MOI of 1 for 9 hours. Intracellular viral RNA was extracted and quantified by qPCR. (FIG. 11C-11E) RD cells were treated with peptides NC, S82A, or S78-3A at indicated concentrations for 2 hours and then infected with EV-A71 at the MOI of 1 for 9 hours. Cell lysates were collected for western blot assay. EV-A71 VP1 were detected. β-Actin was detected as an internal control. (FIG. 11F) Densitometric analysis of the EV-A71 VP1 level in FIG. S7C-E was quantified and normalized with β-Actin using ImageJ. (FIG. 11G) RD cells were treated with peptides S78, S78A, S82A, or S78-3A at the concentration of 25 μM for 2 hours and then infected with EV-A71 at the MOI of 0.1 for 24 hours. Viral titration was calculated. The Statistical analyses were carried out using Student's t-test. *: p<0.05, **: p<0.01, ***: p<0.001. Data are expressed as mean ±SD.
After cell lysis in Nonidet-P40 (NP-40) buffer, the cell lysates were centrifuged, and the concentration was determined by Bradford assay (Bio-Rad). 20 μg of protein was used for 12% SDS-PAGE and transferred onto polyvinylidene fluoride membrane (PVDF) (GE, MA, USA). Following 5% bovine serum albumin (BSA) blocking for 1 hrs, the membrane was incubated with antibodies (1:1000) against Hsp27 (sc-13132), pHsp27-Ser15 (ab76313), pHsp27-Ser78 (ADI-SPA-523), pHsp27-Ser82 (ab155987), VP1 (GTX132339), β-Actin (sc-47778), hnRNP A1 (sc-32301), or GAPDH (sc-32233) overnight in 4° C. After secondary antibodies (HRP-conjugated Affinipure Goat Anti-Mouse IgG(H+L), SA00001-1, and HRP-conjugated Affinipure Goat Anti-Rabbit IgG(H+L), SA00001-2) incubation for 1 hrs, the protein was visualized with a chemiluminescence reagent (PerkinElmer, MA, USA) on Bio-Rad Chemidoc Imaging System. The protein bands were quantified by densitometry with ImageJ if necessary.

EV-A71 IRES activity = assay: Dual-luciferase IRES reporter assay in HEK 293T cells pre-treated with peptides; conditions: 25 μM for 2 hours, 24 h (FIG. 11A)
Description: as §3
FIGS. 11A-11G Inhibition of EV-A71 Protein Translation and Viral Reproduction by peptide S82A. (FIG. 11A) HEK 293T cells were pre-treated with peptides NC, S78, S78A, S82A, or S78-3A at the concentration of 25 μM for 2 hours and then co-transfected with Hsp27-WT plasmid (800 ng), pIRES reporter plasmid (200 ng) and 2A^pro-expressing plasmid for 24 h, then the luciferase activity was measured. (FIG. 11B) RD cells were pre-treated with peptides NC at indicated concentrations for 2 hours and infected with EV-A71 at the MOI of 1 for 9 hours. Intracellular viral RNA was extracted and quantified by qPCR. […] EV-A71 VP1 were detected. β-Actin was detected as an internal control. (FIG. 11F) Densitometric analysis of the EV-A71 VP1 level in FIG. S7C-E was quantified and normalized with β-Actin using ImageJ. […] Viral titration was calculated. […] Data are expressed as mean ±SD.
HEK 293T cells were seeded in 24-wells, and then co-transfected with plasmids to simultaneously express 2A^pro (200 ng), pIRES reporter (200 ng), and the wild-type Hsp27 or its mutants (800 ng). […] The Renilla luciferase (RLuc) and Firefly luciferase (FLuc) activity were determined by using a dual-luciferase reporter assay (Promega) according to the manufacturer's instructions in a Lumat LB9507 bioluminometer.

CCK-8 assay = conditions: human; RD cells, data not shown
Description: as §1

[2] = system: 2Apro-induced relocalization of Hsp27 and hnRNP A1 in RD cells; assay: Immunofluorescence colocalization assay of 2Apro-induced relocalization of Hsp27 and hnRNP A1; conditions: 25 μM for 2 hours, transfected with 2Apro for 24 hours
Description: FIGS. 9A-9B Peptide S78 blocks the 2A^pro-induced relocalization of Hsp27 and hnRNP A1. RD cells on the coverslips were treated with peptides (S78, S78A, and S82A) at the concentration of 25 μM for 2 hours, and then transfected with 2A^pro for 24 hours. The cells were fixed and stained with anti-Hsp27and anti-hnRNPAI, followed by Alexa Fluor 488-conjugated anti-rabbit antibody and Alexa Fluor 594-conjugated anti-mouse antibody. The nuclei were stained with Hoechst. The images were captured by Nikon A1HD25 Confocal Microscope. The JACoP-plugin of the extended ImageJ version Fiji was used to compute the M1 colocalization coefficient, in which (FIG. 9A) is M1 colocalization coefficient for the fraction of Hsp27 in Hoechst and (FIG. 9B) is the M1 colocalization coefficient for the fraction of hnRNP A1 in Hoechst. Statistical analyses were carried out using Student's t-test. *: p<0.05, **: p<0.01, ***: p<0.001. Data are expressed as mean ±SD.
as §2

Substance | effect on viral titer (in words) (EV-A71) | CC50 (in words) (RD cells) | redistribution of Hsp27 and hnRNP A1 in EV-A71-infected RD cells [1] | reduction of VP1 level (densitometric assay) (EV-A71 VP1) | EV-A71 VP1 protein level (in words) (EV-A71 VP1) | effect on viral IRES activity (in words) (EV-A71 IRES activity) | CC50 at 2 days (CCK-8 assay) [µM] | localization of Hsp27 and hnRNP A1 in mock RD cells ([1]; without EV-A71) | 2Apro-induced relocalization of Hsp27 and hnRNP A1 [2]
Ac-RKKRRQRRRAYSRAAAAQLSS-NH2 [S78-3A] | mildly decreased | high | partially suppressed | about 60% | much weaker | mildly decreased | – | – | –
Ac-RKKRRQRRRAYSRALSRQLAS-NH2 [S82A] | – | – | dramatically blocked | > 90% | a little bit weaker inhibition | – | > 600 | not affected | almost completely blocked
